Laboratory results as given in article PMC10783051 (Microbiology Spectrum, 2023).
Entries after “also recorded” stand apart in the source; their conditions may differ.

Assays:
Streptomyces [1] = conditions: cited from earlier work
Source text: Therefore, we hypothesized that Sv may catabolize those exogenous CLPs and use them as nutritional sources. […] (Fig. 2E and F). Extraction of the me ...

Streptomyces [2] = conditions: cited from earlier work
[3] = Sv cell-free supernatant (CFS); conditions: Streptomyces venezuelae ATCC 10712, 30°C, up to 24 h; time course up to 48 h
[4] = Sv cultures grown on gelified GA1 ΔbaeJ-mlnA-dfnA CFS; conditions: Streptomyces venezuelae, 28°C, up to 3 days
[5] = rhizosphere extracts (agar near tomato roots co-inoculated with Bv and Sv, Hoagland solid medium); conditions: Streptomyces venezuelae ATCC 10712 / Bacillus velezensis GA1-GFP on tomato (Solanum lycopersicum var. Moneymaker), 22°C, up to 7 days
[6] = confrontation zone between B. velezensis GA1 and S. venezuelae ATCC 10712 on REM solid medium (agar extract); conditions: Streptomyces venezuelae ATCC 10712 / Bacillus velezensis GA1, 26°C, up to 3 days
[7] = system: S. venezuelae supernatant (secreted enzymes); assay: In vitro degradation of CLPs by S. venezuelae cell-free supernatant; format: in vitro ADME, Streptomyces venezuelae ATCC 10712; conditions: shaking 180 rpm; for degradation of Pseudomonas CLPs by Sv CFS: Pseudomonas CFS (CAA medium) supplemented with 4% (vol/vol) Sv CFS, 24 h at 30°C, UPLC-MS and MS/MS, degraded to different degrees
Protocol: S. venezuelae cultures were performed on ISP2 medium at 28°C (yeast extract 4 g/L, malt extract 10 g/L, glucose 4 g/L, agar 20 g/L; pH 7.3). On 12 × 12 cm Petri square plates, three stripes (1 × 12 cm) of spores were inoculated with a cotton swab [40 µL of spores suspension (10^7 spores/mL) each], spaced by 3 cm each. The plates were left for 7 days of incubation. Next, the agar media was recovered and placed in Falcon tubes at −20°C for 24 h. Then, the agar media were defrosted at room temperature and centrifuged (8,000 rpm for 20 min). Finally, the supernatant leaked from the agar was collected, filtered sterilized (0.22-µm pore size filters) and stored at −20°C until further use. The heat-treated Sv supernatant was generated by incubating an aliquot of the cell-free supernatant of Sv for 10 min at 98°C. The supernatant was then filtered (0.22-µm pore size filters) and stored at −20°C until further use.
[…] Then the solutions were incubated for 24 h at 30°C with continuous shaking (180 rpm). Next, the solution were centrifuged (1 min at 10,000 rpm), filtered (0.22-µm pore size filters), and analyzed by UPLC-MS.
The degradation assays of Pseudomonas CLPs were performed using CFS generated as described above. They were supplemented by 4% (vol/vol) of S. venezuelae CFS prepared as described previously. Next, the solutions were incubated for 24 h at 30°C with continuous shaking (180 rpm). Then, the solution were centrifuged (1 min at 10,000 rpm), filtered (0.22-µm pore size filters), and analyzed by UPLC-MS.
For the CLP degradation kinetic experiments, surfactin, iturin, and fengycin solutions supplemented with S. venezuelae supernatant were prepared following the same protocol. Twenty microliters of solution was sampled at each time point and directly mixed with 80 µL of acetonitrile to stop enzymatic degradation. Finally, they were stored at −20°C until analysis by UPLC-MS.
All UPLC-MS analyses were performed using an Agilent 1290 Infinity II coupled with a diode array detector and a mass detector (Jet Stream ESI-Q-TOF 6530) in positive mode with the parameters set up as follows: capillary voltage of 3.5 kV, nebulizer pressure of 35 lb/in^2, drying gas of 8 L/min, drying gas temperature of 300°C, flow rate of sheath gas of 11 L/min, sheath gas temperature of 350°C, fragmentor voltage of 175 V, skimmer voltage of 65 V, and octopole radiofrequency of 750 V. Accurate mass spectra were recorded in the m/z range of 300–1,700. For untargeted MS/MS, we used the same MS1 parameters as described. We added MS2 untargeted acquisition mode with the parameters as follows: MS/MS range 50–1,700 m/z; MS/MS scan rate 3 spectra/s; isolation width MS/MS medium (approx. 4 AMU), Decision Engine Native; fixed collision energies of 25 and 40 V for surfactin, 50 V for iturin, and 60 V for fengycin experiments; precursor selection: three for the surfactin experiment, four for the iturin and fengycin experiments, threshold 1,500 (Abs), isotope model common, active exclusion after two spectra and release after 0.5 min, sorting the precursors by charge state then abundance (charge state preference 1). For targeted MS/MS, we used the same MS1 parameters MS/MS range of 50–1,700 m/z or 50–3,200 (when required for Pseudomonas CLPs with mass >1,700 Da), MS/MS scan rate 3 spectra/s, isolation width MS/MS narrow (approx. 1.3 amu), and fixed collision energies 20, 40, and 60V. In all experiments, a C18 Acquity UPLC ethylene bridged hybrid column (2.1 mm × 50 mm × 1.7 µm; Waters Corporation, Milford, MA, USA) was used at a flow rate of 0.6 mL/min and a temperature of 40°C. The injection volume was 20 µL, and the diode array detector scanned a wavelength spectrum between 190 and 600 nm. Unless otherwise mentioned, a gradient of acidified water (0.1% formic acid) (solvent A) and of acidified acetonitrile (0.1% formic acid) (solvent B) was used as mobile phase with a constant flow rate of 0.6 mL/min, starting at 10% B and rising to 100% B in 20 min. […]

[8] = system: Streptomyces venezuelae ATCC 10712; assay: Confrontation assay B. velezensis GA1 / S. venezuelae on REM plate, UPLC-MS metabolite profiling of the agar; conditions: gelified REM, 3 days at 26°C
Protocol: Confrontation assays were performed on square Petri dishes (12 × 12 cm) with 40 mL of REM solid medium at 26°C (REM supplemented with 14 g/L of agar).
S. venezuelae ATCC 10712 was inoculated as stripes (1 × 12 cm) in the middle of the plate with 40 µL of spore suspension (10^7 spores/mL) and spread with a cotton swab. Next, B. velezensis GA1 cells were collected from fresh precultures as described and adjusted to OD600 nm 0.1. Then, 5 µL of B. velezensis GA1 suspension was spotted at 1 cm of the Streptomyces line. Control plates were done following the same procedure without the inoculation of either Bacillus or Streptomyces. Plates were then incubated for 3 days at 26°C in the dark. Pictures of the plates were then captured using a CoolPix camera (NIKKOR ×60 wide optical zoom extra-low dispersion vibration reduction 4.3–258.0 mm 1:33 to 6.5).
The extraction of the metabolites from the agar was performed as follows. For the confrontation experiment, we precisely sampled the area of agar (2 × 1 cm) near the colony of Bacillus or Streptomyces (the confrontation zone is 1 cm wide) with standardized plugs. For the in planta, we sampled the agar area (1 × 1 cm) near the tomato roots. In both cases, the agar samples were transferred to Eppendorf tubes and placed for 24 h at −20°C. Then, the agar was thawed at room temperature and centrifuged for 10 min at 13,000 rpm. The supernatants were then collected and filtered (0.22-µm pore size filters) before UPLC-MS analysis.
All UPLC-MS analyses were performed using an Agilent 1290 Infinity II coupled with a diode array detector and a mass detector (Jet Stream ESI-Q-TOF 6530) in positive mode with the parameters set up as follows: capillary voltage of 3.5 kV, nebulizer pressure of 35 lb/in^2, drying gas of 8 L/min, drying gas temperature of 300°C, flow rate of sheath gas of 11 L/min, sheath gas temperature of 350°C, fragmentor voltage of 175 V, skimmer voltage of 65 V, and octopole radiofrequency of 750 V. Accurate mass spectra were recorded in the m/z range of 300–1,700. For untargeted MS/MS, we used the same MS1 parameters as described. We added MS2 untargeted acquisition mode with the parameters as follows: MS/MS range 50–1,700 m/z; MS/MS scan rate 3 spectra/s; isolation width MS/MS medium (approx. 4 AMU), Decision Engine Native; fixed collision energies of 25 and 40 V for surfactin, 50 V for iturin, and 60 V for fengycin experiments; precursor selection: three for the surfactin experiment, four for the iturin and fengycin experiments, threshold 1,500 (Abs), isotope model common, active exclusion after two spectra and release after 0.5 min, sorting the precursors by charge state then abundance (charge state preference 1). For targeted MS/MS, we used the same MS1 parameters MS/MS range of 50–1,700 m/z or 50–3,200 (when required for Pseudomonas CLPs with mass >1,700 Da), MS/MS scan rate 3 spectra/s, isolation width MS/MS narrow (approx. 1.3 amu), and fixed collision energies 20, 40, and 60V. In all experiments, a C18 Acquity UPLC ethylene bridged hybrid column (2.1 mm × 50 mm × 1.7 µm; Waters Corporation, Milford, MA, USA) was used at a flow rate of 0.6 mL/min and a temperature of 40°C. The injection volume was 20 µL, and the diode array detector scanned a wavelength spectrum between 190 and 600 nm. Unless otherwise mentioned, a gradient of acidified water (0.1% formic acid) (solvent A) and of acidified acetonitrile (0.1% formic acid) (solvent B) was used as mobile phase with a constant flow rate of 0.6 mL/min, starting at 10% B and rising to 100% B in 20 min. Solvent B was kept at 100% for 4 min before going back to the initial ratio. MassHunter Workstation (version 10.0) and ChemStation software were used for data collection and analysis. For untargeted analysis of iturin and fengycin degradation products, we used the same solvent and flow rate, starting at 10% B to 20% in 2 min, then rising to 50% B at 14 min and 100% B at 25 min, followed by 100% B and 5 at 10% B at 6 min.

## C/C(=C/C=C/C=C/C(C)C(=O)O)NC(=O)CC(O)\C(C)=C/C=C\C=C(C)\C=C\C=C/C=C/CNC(=O)C(O)CC(C)C (centres unmarked) [bacillaene]
Streptomyces [1]
  toxicity toward Streptomyces: toxicity

## Fa Glu Leu Leu Val Asp Leu Leu
Streptomyces [2]
  fragment found: linear surfactin
[3]
  cleaved bond: Fa-E and E-L and L-L and L-V
  fragment found: Linear surfactin, first_seen and FaEL
[4]
  fragment found: Linear surfactin; also recorded: ELLVDLL; also recorded: LLVDLL
[5]
  fragment found: linear surfactins; also recorded: ELLVDLL
[6]
  cleaved bond: Fa-E
  fragment found: Linear surfactin

## VSLVVQLVDhbTIHseDabK (lariat or depsi) [sessilin, Pseudomonas cyclic lipopeptide, tested in Pseudomonas cell-free supernatant]
[7]
  degradation of Pseudomonas CLPs by Sv CFS: degraded

## difficidin
Streptomyces [1]
  toxicity toward Streptomyces: toxicity

## fengycin
[7]; pure CLPs (100 µM) incubated 24 h at 30°C with 4% (vol/vol) Sv CFS (grown on ISP2, 0.22-µm filtered), UPLC-MS/MS with feature-based molecular networking
  degradation of pure Bacillus CLPs by Sv CFS: degrades
[8]; UPLC-MS, MS/MS
  shorter CLP fragment detected in the confrontation zone but not in Bv monoculture: loss of the terminal isoleucine
[8]; agar extract of confrontation zone, UPLC-Q-TOF-MS peak areas, three biological replicates
  abundance of the CLP in the confrontation zone compared with monocultures: decrease in the abundance

## macrolactin
Streptomyces [1]
  toxicity toward Streptomyces: toxicity

## orfamide
[7]
  degradation of Pseudomonas CLPs by Sv CFS: degraded

## putisolvin
[7]
  degradation of Pseudomonas CLPs by Sv CFS: degraded

## xantholisin
[7]
  degradation of Pseudomonas CLPs by Sv CFS: degraded
